The record followed here is DBAASP.

The structures appear in SMILES notation. Values after ≈ are worked out from the molar mass of the structure shown. Values joined by “and” are separate entries in the source; they are usually repeats but may differ in a detail not shown here. Identical values can stand only once. Where only a bound is given, the exact number is not on record here.

What all share (experiment): ≥ marks a high value that may be exact or a test limit, other limits are often not marked, values filed in µg/mL are converted to µM
Assay [1] has as its system Candida albicans ATCC 64550.
The subject of assay [2] is Staphylococcus aureus ATCC 25923.
The test system of assay [3] is Escherichia coli.
Assay [4] relates to Saccharomyces cerevisiae Y190.
Assay [5] has as its system Arthrobacter globiformis VKM Ac-1112.
In assay [6] the test system is Pseudomonas aeruginosa PAO1.
Assay [7] has as its system Escherichia coli DH5alpha.
Assay [8] relates to Bacillus subtilis VKM B-501.
In assay [9] the test system is Escherichia coli MH1.
The test system of assay [10] is Staphylococcus aureus ST1065.
Assay [11] has as its system Candida parapsilosis ATCC 22019.
In assay [12] the test system is Streptococcus pyogenes ATCC 19615.
Assay [13] concerns Enterococcus faecalis ATCC 29212.
For assay [14], the system named is Klebsiella pneumoniae ATCC 13883.
For assay [15], the system named is Escherichia coli ATCC 25922.
Assay [16] concerns Candida albicans ATCC 90028.
Assay [17] has as its system Saccharomyces cerevisiae.
Assay [18] deals with Salmonella enterica subsp. enterica serovar Enteritidis.
In assay [19] the test system is Listeria ivanovii.
In assay [20] the test system is Pseudomonas aeruginosa ATCC 27853.
Assay [21] concerns Escherichia coli ML-35p.
Assay [22] deals with Acinetobacter baumannii ATCC 19606.
The test system of assay [23] is Candida albicans ATCC 37092.
The test system of assay [24] is Staphylococcus aureus ATCC 29213.
Assay [25] concerns Escherichia coli W160-37.
The subject of assay [26] is Staphylococcus aureus.

Consider `NCCCC[C@H](NC(=O)[C@H](CCCCN)NC(=O)[C@H](CCCN=C(N)N)NC(=O)[C@H](CCCN=C(N)N)NC(=O)[C@H](Cc1c[nH]c2ccccc12)NC(=O)[C@H](Cc1c[nH]c2ccccc12)NC(=O)[C@H](CCCN=C(N)N)NC(=O)[C@H](CCCCN)NC(=O)[C@H](Cc1c[nH]c2ccccc12)NC(=O)[C@@H](N)CCCN=C(N)N)C(N)=O` [RWKRWWRRKK], for which the MIC in assay [1] was not below 100 µM; in assay [2] it was 3 µM and 6 µM; in [3], 3 µM (≈ 4.75 µg/mL).

With `CC[C@H](C)[C@H](NC(=O)[C@H](Cc1ccc(O)cc1)NC(=O)[C@H](CCC(N)=O)NC(=O)[C@H](CCCCN)NC(=O)[C@H](CC(C)C)NC(=O)[C@H](CCCCN)NC(=O)[C@H](CCC(=O)O)NC(=O)CNC(=O)[C@H](CCSC)NC(=O)[C@H](CO)NC(=O)[C@H](CCCCN)NC(=O)[C@@H](NC(=O)[C@H](CCCCN)NC(=O)[C@H](CC(=O)O)NC(=O)[C@H](CCCCN)NC(=O)[C@H](CC(C)C)NC(=O)[C@@H](N)CO)C(C)C)C(=O)N[C@@H](CCC(N)=O)C(=O)N[C@H](C(=O)N[C@@H](Cc1c[nH]c2ccccc12)C(=O)N[C@@H](CCCCN)C(=O)N[C@@H](C)C(=O)N[C@@H](CCCCN)C(=O)N[C@@H](Cc1ccccc1)C(N)=O)[C@@H](C)O` [SLKDKVKSMGEKLKQYIQTWKAKF], the MIC in [4] was not below 35 µM; in assay [5], 0.3 µM (≈ 0.865 µg/mL); in assay [6], more than 35 µM; in assay [7] it was 4.4 µM (≈ 12.7 µg/mL); in [8], 1.1 µM (≈ 3.17 µg/mL); in assay [9] it was 4.4 µM (≈ 12.7 µg/mL).

On to `CC[C@H](C)[C@H](NC(=O)CNC(=O)[C@H](CCCCN)NC(=O)[C@H](C)NC(=O)[C@@H](N)Cc1ccccc1)C(=O)N[C@@H](C)C(=O)NCC(=O)N[C@@H](CCSC)C(=O)N[C@@H](C)C(=O)NCC(=O)N[C@@H](CCCCN)C(=O)N[C@@H](CC(C)C)C(=O)N[C@@H](Cc1ccccc1)C(N)=O` [FAKGIAGMAGKLF], for which the MIC in assay [10] was not below 200 µM; in assay [11], not below 200 µM; in [12] it was not below 100 µM; in assay [13], more than 200 µM; in [2], more than 200 µM; in [14], not below 200 µM. Besides, the MIC in assay [15] is more than 200 µM; in [16], not below 200 µM; in assay [17], not below 200 µM; in [18], not below 200 µM; in [19], not below 200 µM; in [20], more than 200 µM. Besides, the MIC was not below 200 µM in assay [21] and more than 200 µM in [22].

For the compound `CC[C@H](C)[C@H](NC(=O)[C@H](CCCN=C(N)N)NC(=O)[C@@H](N)CCCN=C(N)N)C(=O)N[C@@H](CCCN=C(N)N)C(=O)N1CCC[C@H]1C(=O)N[C@@H](CCCN=C(N)N)C(=O)N1CCC[C@H]1C(=O)N1CCC[C@H]1C(=O)N[C@@H](CCCN=C(N)N)C(=O)N[C@@H](CC(C)C)C(=O)N1CCC[C@H]1C(=O)N[C@@H](CCCN=C(N)N)C(=O)N1CCC[C@H]1C(=O)N[C@@H](CCCN=C(N)N)C(=O)N1CCC[C@H]1C(=O)N[C@@H](CCCN=C(N)N)C(=O)N1CCC[C@H]1C(=O)O` [RRIRPRPPRLPRPRPRP], the MIC is 1.05 µM (≈ 2.28 µg/mL) in [23], 0.89 µM (≈ 1.93 µg/mL) in assay [15] and 0.81 µM (≈ 1.76 µg/mL) in assay [24].

For `CC[C@H](C)[C@H](NC(=O)[C@@H]1CCCN1C(=O)[C@H](CCCN=C(N)N)NC(=O)[C@@H]1CCCN1C(=O)CNC(=O)[C@@H]1CCCN1C(=O)[C@H](CCCN=C(N)N)NC(=O)[C@@H]1CCCN1C(=O)[C@H](Cc1ccccc1)NC(=O)[C@@H]1CCCN1C(=O)[C@H](CC(C)C)NC(=O)[C@@H]1CCCN1C(=O)[C@H](CCCN=C(N)N)NC(=O)[C@@H]1CCCN1C(=O)[C@@H](NC(=O)[C@@H]1CCCN1C(=O)[C@H](CCCN=C(N)N)NC(=O)[C@@H]1CCCN1C(=O)CNC(=O)[C@@H]1CCCN1C(=O)[C@H](CCCN=C(N)N)NC(=O)[C@@H]1CCCN1C(=O)[C@H](Cc1ccccc1)NC(=O)[C@@H]1CCCN1C(=O)[C@H](CC(C)C)NC(=O)[C@@H]1CCCN1)[C@@H](C)CC)C(=O)N1CCC[C@H]1C(=O)N[C@@H](CCCN=C(N)N)C(=O)N1CCC[C@H]1C(=O)O` [PLPFPRPGPRPIPRPLPFPRPGPRPIPRP], the values for the MIC in assay [23], in [15] and in assay [24] were 0.5 µM (≈ 1.64 µg/mL), 5.84 µM (≈ 19.1 µg/mL) and 30.5 µM (≈ 99.8 µg/mL), respectively.

As to `CC[C@H](C)[C@H](NC(=O)[C@H](Cc1c[nH]c2ccccc12)NC(=O)[C@H](CCCCN)NC(=O)[C@H](CCCCN)NC(=O)[C@H](CC(C)C)NC(=O)[C@H](Cc1ccccc1)NC(=O)[C@H](CCCCN)NC(=O)[C@H](CCCCN)NC(=O)[C@H](CC(C)C)NC(=O)[C@H](CC(C)C)NC(=O)[C@H](CCCCN)NC(=O)[C@@H]1CCCN1)C(=O)NCC(=O)O` [PKLLKKFLKKWIG], the MIC in assay [25] came to 24 µM (≈ 38.4 µg/mL); in [26] it was 13 µM (≈ 20.8 µg/mL).

Turning to `CSCC[C@H](NC(=O)[C@H](CO)NC(=O)[C@H](C)NC(=O)[C@H](Cc1c[nH]c2ccccc12)NC(=O)[C@@H](N)CO)C(=O)N[C@@H](C)C(=O)N[C@@H](CCCCN)C(=O)N[C@@H](CCCCN)C(=O)N[C@@H](CC(C)C)C(=O)N[C@@H](CCCCN)C(=O)N[C@@H](CCC(=O)O)C(=O)N[C@@H](Cc1ccc(O)cc1)C(=O)N[C@@H](CCSC)C(=O)N[C@@H](CCC(=O)O)C(=O)N[C@@H](CCCCN)C(=O)N[C@@H](CC(C)C)C(=O)N[C@@H](CCCCN)C(=O)N[C@@H](CCC(N)=O)C(=O)N[C@@H](CCCN=C(N)N)C(=O)N[C@@H](C)C(N)=O` [SWASMAKKLKEYMEKLKQRA], the MIC in assay [4] was 23 µM (≈ 55.8 µg/mL); in assay [5], 0.7 µM (≈ 1.7 µg/mL); in assay [6], more than 45 µM; in assay [7], 23 µM (≈ 55.8 µg/mL); in [8], 2.9 µM (≈ 7.04 µg/mL); in assay [9] it was 28 µM (≈ 67.9 µg/mL).

For `CC[C@H](C)[C@H](NC(=O)CNC(=O)[C@@H](N)CCCCN)C(=O)N[C@H](C(=O)NCC(=O)N[C@@H](CCSC)C(=O)N[C@@H](CC(C)C)C(=O)NCC(=O)N[C@@H](CCCCN)C(=O)N[C@@H](CC(C)C)C(=O)N[C@@H](Cc1ccccc1)C(N)=O)C(C)C` [KGIVGMLGKLF], the minimal inhibitory concentration (MIC) was not below 40 µM in [10]; not below 50 µM in assay [11]; not below 50 µM in [12]; more than 200 µM in [13]; 40 µM (≈ 46.5 µg/mL) in [2]; not below 100 µM in [14]. Besides, the MIC in [15] was 30 µM (≈ 34.8 µg/mL); in [16] it was 12 µM (≈ 13.9 µg/mL); in assay [17], 12 µM (≈ 13.9 µg/mL); in assay [18] it was not below 100 µM; in assay [19], 12 µM (≈ 13.9 µg/mL); in [20] it was 25 µM (≈ 29 µg/mL). In addition, the results for the MIC in assay [21] and in assay [22] were 25 µM (≈ 29 µg/mL) and 50 µM (≈ 58.1 µg/mL), respectively.

As to `CC[C@H](C)[C@H](N)C(=O)N[C@@H](CC(C)C)C(=O)N1CCC[C@H]1C(=O)N[C@@H](CC(C)C)C(=O)N[C@@H](CCCCN)C(=O)N[C@@H](CC(C)C)C(=O)N1CCC[C@H]1C(=O)N[C@@H](CC(C)C)C(=O)N[C@@H](CC(C)C)C(=O)N1CCC[C@H]1C(=O)N[C@@H](Cc1c[nH]c2ccccc12)C(=O)N[C@@H](CCCN=C(N)N)C(=O)N[C@@H](CCCN=C(N)N)C(N)=O` [ILPLKLPLLPWRR], the MIC was 12.4 µM (≈ 20 µg/mL) in assay [25] and 3.1 µM (≈ 5 µg/mL) in assay [26].
